{
  "source": "patent US12623988B2",
  "about": "“Scaleable preparation of polyketides” (The Regents of the University of California, priority 2019, dated 2026)",
  "key": {"[1]": {"conditions": "estimated, reference (6); cited from earlier work"}, "[2]": {"assay": "Storage stability of synthetic fragments and intermediates", "conditions": "for stability at ambient conditions: storage"}, "HCT-116 cells": {"tested_on": "HCT-116 cells", "assay": "Cell viability assay for 1 and 1a-1c in HCT-116 cells (CellTiter Aqueous One, GI50)", "assay_type": "cell-based, human", "conditions": "0 to 1000 nM, 72 h, result in words, compared to 1", "experimental": "Cell culture. The HCT-116 cell line was cultured in McCoy's 5a (Life Technologies) supplemented with 10% fetal bovine serum (FBS), 2 mM L-glutamine, and 100 U mL^−1 of penicillin and 100 μg mL^−1 of streptomycin at 37° C. in an atmosphere of 5% CO2. Both the HeLa and Caov3 cell lines were maintained in DMEM (Life Technologies) supplemented with 10% FBS, 2 mM L-glutamine, and 100 U mL^−1 of penicillin and 100 μg mL^−1 of streptomycin at 37° C. in an atmosphere of 5% CO2.\nCell Viability Assays for 1a-1c. HCT-116 cells were cultured in McCoy's 5a (Life Technologies) supplemented with 10% fetal bovine serum (FBS), 2 mM L-glutamine, 100 U mL^−1 penicillin and 100 μg mL^−1 streptomycin at 37° C. in an atmosphere of 5% CO2. HCT-116 cells were plated at […] cells/well in McCoy's 5a containing 10% FBS. Cells were cultured for 24 h, pretreated with 1 or 1a-1c in DMSO ranging from 0 to 1000 nM for 72 h (cell media contained <0.5% DMSO), and then washed with PBS (2×100 μL). 100 μL of PBS was added to each well, followed by 20 μL of CellTiter Aqueous One Solution (Promega). After 2 h at 37° C., absorbance readings were taken at 490 nm (test wavelength) and 690 nm (reference wavelength). GI50 values were calculated in Prism (GraphPad) using at least three biological replicates."}, "[3]": {"conditions": "rcm bond, Hoveyda-Grubbs 2nd generation catalyst, toluene, 110.0 °C, 5.33 h"}},
  "note": "“Also recorded” adds a separate entry of the source. Like-named read-outs stand apart in the source and are kept apart here.",
  "data": [
    {"smiles": "CC[C@H](OC)[C@@H](C)[C@H]1O[C@@H]1[C@@H](O)[C@H](C)/C=C/C=C(\\C)[C@H]1OC(=O)C[C@H](O)CC[C@@](C)(O)[C@@H](OC(C)=O)/C=C/[C@@H]1C", "note": "[compound 1, 17S-FD-895]", "values": [
      {"measurement": "human maximum tolerated dose (MTD)", "setting": "[1]", "value": "~4", "unit": "mg/m^2"}
    ]},
    {"smiles": "CC[C@H](OC)[C@@H](C)/C=C/CO", "note": "[compound 13, (4S,5S,E)-5-Methoxy-4-methylhept-2-en-1-ol]", "values": [
      {"measurement": "storage stability at 4° C.", "setting": "[2]; stored at 4° C.", "value": "over 2 years"}
    ]},
    {"smiles": "CC[C@H](OC)[C@@H](C)[C@H]1O[C@@H]1[C@@H](O)[C@H](C)/C=C/C=C(\\C)[C@H]1OC(=O)C[C@@H](O)CC[C@@](C)(O)[C@@H](OC(C)=O)/C=C/[C@@H]1C", "note": "[1a, 3S,17S-FD-895]", "values": [
      {"measurement": "activity (GI50 screening) in human colorectal tumor HCT-116 cells", "setting": "HCT-116 cells", "value": "compromised activity"}
    ]},
    {"smiles": "C#C[C@@H](C)[C@H](O)[C@H]1O[C@@H]1[C@H](C)[C@H](CC)OC", "note": "[compound 15, (1S,2R)-1-((2R,3R)-3-((2R,3S)-3-methoxypentan-2-yl)oxiran-2-yl)-2-methylbut-3-yn-1-ol]", "values": [
      {"measurement": "stability at ambient conditions", "setting": "[2]", "value": "stable over six months at ambient conditions"}
    ]},
    {"smiles": "COc1ccc(C2O[C@H]3C=C[C@H](C)[C@@H](/C(C)=C/I)O[13C](=O)C[C@H](O[Si](C)(C)C(C)(C)C)CC[C@@]3(C)O2)cc1", "note": "(stereo partly drawn)", "values": [
      {"measurement": "ring closure, yield of all isomers", "setting": "[3]; from C=C[C@@H]1OC(c2ccc(OC)cc2)O[C@]1(C)CC[C@H](C[13C](=O)O[C@H](/C(C)=C/I)[C@@H](C)C=C)O[Si](C)(C)C(C)(C)C, 6.52 mM", "value": 50, "unit": "%"}
    ]},
    {"smiles": "COc1ccc(C2O[C@H]3/C=C/[C@H](C)[C@@H](/C(C)=C/I)OC(=O)C[C@H](O[Si](C)(C)C(C)(C)C)CC[C@@]3(C)O2)cc1", "note": "(stereo partly drawn)", "values": [
      {"measurement": "ring closure, yield of all isomers", "setting": "[3]; from C=C[C@@H]1OC(c2ccc(OC)cc2)O[C@]1(C)CC[C@H](CC(=O)O[C@H](/C(C)=C/I)[C@@H](C)C=C)O[Si](C)(C)C(C)(C)C, 5.37 mM", "value": 50, "unit": "%"},
      {"measurement": "ring closure, yield of all isomers", "setting": "[3]; from C=C[C@@H]1OC(c2ccc(OC)cc2)O[C@]1(C)CC[C@H](CC(=O)O[C@H](/C(C)=C/I)[C@@H](C)C=C)O[Si](C)(C)C(C)(C)C", "value": 51, "unit": "%"}
    ]},
    {"smiles": "CC(=O)O[C@H]1/C=C/[C@H](C)[C@@H](/C(C)=C/I)OC(=O)C[C@H](O)CC[C@@]1(C)O", "note": "[compound 2, (2S,3S,6S,7R,10R,E)-7,10-dihydroxy-2-((E)-1-iodoprop-1-en-2-yl)-3,7-dimethyl-12-oxooxacyclododec-4-en-6-yl acetate]", "values": [
      {"measurement": "stability at ambient conditions", "setting": "[2]", "value": "stable over six months at ambient conditions"}
    ]},
    {"smiles": "CC[C@H](OC)[C@@H](C)[C@H]1O[C@@H]1[C@@H](O)[C@H](C)/C=C/C=C(\\C)[C@H]1OC(=O)C[C@H](O)CC[C@@](C)(O)[C@H](OC(C)=O)/C=C/[C@@H]1C", "note": "[1b, 7R,17S-FD-895]", "values": [
      {"measurement": "activity (GI50 screening) in human colorectal tumor HCT-116 cells", "setting": "HCT-116 cells", "value": "compromised activity; also recorded: lack in activity"}
    ]}
  ]
}
